# Where “and” joins values, the source holds several entries; their conditions need not be identical. Equal values may be shown once.
# Key:
# [1] = target: T1, human serum albumin (HSA) (Homo sapiens, UniProt P02768); assay: Albumin-mediated size exclusion chromatography (AMSEC); assay type: in vitro ADME; details: for tR,AMSEC (retention time in AMSEC run): 177Lu-labeled ligand, mobile phase 700 µM HSA in PBS pH 7.4, Superdex 75 Increase, corrected for detector offset, normalized to column 1; for Retention factor k: fraction of time the radioligand is complexed to HSA during the AMSEC run, Equation (2); for MWapp,raw (raw apparent molecular weight): from tR,AMSEC by column calibration, 700 µM HSA in PBS pH 7.4; for MWapp,norm. (normalized apparent molecular weight): from tR,norm. by column calibration; for tR,norm. (normalized retention time): normalized with tR,blank, tR,HSA and tR,acetone, Equation (5); for MWapp,raw in percentage of the MWapp,raw of rhPSMA-7.3: rhPSMA-7.3 = 100%
# T1 construct: purchased Biowest, Nuaillé, France
# Protocol: All size exclusion chromatographic (SEC) experiments were carried out using the above-mentioned HPLC system equipped with a Superdex 75 Increase 10/300 GL gel filtration size exclusion column (fractionation range 70–3 kDa, GE Healthcare, Uppsala, Sweden). Eluents at room temperature, a constant flow rate of 0.8 mL/min, and an acquisition time of 35 min were generally applied. The column was calibrated as recommended by the manufacturer using a commercially available set of proteins (Gel Filtration LMW Calibration Kit, GE Healthcare, Buckinghamshire, UK). Retention times of calibration proteins and calculated calibration parameters are given in the Supplementary Materials (Table S3). UV signal detection occurred at 280 nm.
# All retention times of radio signals were corrected for the offset between the UV-vis detector and radio-detector (Δt = 0.084 min). Throughout the development of the AMSEC method, three gel filtration columns of the same type were used for experiments (most data were acquired using column 1). As calculations were based on absolute empirical retention times that inherently differed slightly from column to column, all retention times determined on column 2 and column 3 were mathematically converted to an equivalent retention time on column 1 using the columns’ calibration parameters. A detailed description of these calculations is provided in the Supplementary Materials.
# All numerical retention times explicitly given in running text or tables and plotted in diagrams are already corrected for the offset between UV-vis and radio-detector and, if initially determined on columns 2 or 3, converted to the equivalent retention time on column 1 (for detailed information, see Equations (S1) and (S2) and Table S1 in the Supplementary Materials).
# AMSEC runs were executed with a solution of HSA (Biowest, Nuaillé, France) in PBS (pH 7.4) at physiological concentration (700 µM) as a mobile phase. Upon injection of approximately 1.0 MBq (5–10 µL) of a radioligand, the elution profile was monitored via radioactivity detection, and the retention times of observed radiopeaks (tR,AMSEC) were determined via semi-automated peak integration. By means of calibration, retention times were translated into a ligand-specific raw apparent molecular weight (MWapp,raw) as a parameter to assess the extent of HSA binding (for calculation, see Equation (S6) in the Supplementary Materials). rhPSMA-7.3 served as an internal standard during AMSEC studies and was co-evaluated whenever new data were collected to assess the reproducibility of the method (n = 14).
# For reference purposes, conventional SEC runs of HSA (100 µL, 3 mg/mL) and acetone (100 µL, 2% in PBS pH 7.4) with PBS (pH 7.4) as a mobile phase were executed. The retention time of HSA (tR,HSA) corresponded to the maximal MWapp,raw, theoretically observable in AMSEC runs in the case of continuous binding of a radioligand to HSA (equivalent to 100% HSA binding). The retention time of acetone (tR,acetone) served as a reference for a ligand with no interaction with HSA in AMSEC runs (equivalent to 0% HSA binding) and an actual physical molecular weight below the column fractionation range (this was the case for all investigated radioligands).
# MWapp,raw values determined as described in Section 3.3.1. were normalized in order to account for ligand-specific influences on experimentally determined retention times and to establish quantitative comparability of the obtained MWapp,norm. values. The normalization was based on a SEC run (referred to as blank run) of a radioligand executed in analogy to the AMSEC run but using PBS (pH 7.4) without HSA as a mobile phase. The determined retention time tR,blank, together with the retention time tR,AMSEC from the AMSEC run, tR,HSA, and tR,acetone determined in Section 3.3.1, were used to calculate a normalized retention time tR,norm. for every radioligand (for formulae and details on the calculation, see Section 2. Results and Discussion). […]
# [2] = Calculated glomerular sieving coefficients (GSCcalc) from MWapp,norm.; details: from MWapp,norm. via sigmoidal fit of MW vs GSC of 12 human plasma proteins
# Description: Therefore, when comparing the MWapp,norm. of different radioligands, not only their relative difference but also the absolute values of MWapp,norm. are of importance. […] These GSCcalc determined for all the PSMA radioligands (Table 2, Figure 5) inherently account for the exponential nature of the relationship between their albumin-mediated MWapp,norm. and MW-dependent GF and could, therefore, be a useful parameter to estimate differences in blood clearance by means of GF. The GSC is defined as the ratio of a compound’s concentration in the glomerular filtrate to that in the blood; thus, a GSC of 1 represents unhindered filtration through the capillary membrane in the glomerulus, while a lower GSC corresponds to a restricted filtration and, thus, a prolonged circulatory half-life. […] As an example, a GSCcalc of 0.408 was determined for rhPSMA-7.3, while an almost three-fold smaller GSCcalc of 0.138 was determined for rhPSMA-7.4. […] This would constitute a dramatic physiological effect that, in its extent, could not be predicted only based on subtle differences in molecular structure and other conventionally determined in vitro parameters. We, therefore, believe that the MWapp,norm. and GSCcalc obtained by AMSEC could be important parameters that, already at the preclinical stage of development, could help in the selection of promising therapeutic radioligands with pharmacokinetic profiles suitable for patient application.
# A sigmoidal fit of molecular weights (MWs, in kDa) and corresponding glomerular sieving coefficients (GSCs) of 12 human plasma proteins (data taken from Norden et al.) was executed using OriginPro software. A dose-response model based on Equation (6) was applied:(6) GSC=A1+A2−A1/1+10^(LOGx0−MW)·p.
# The values of bottom asymptote A1 and top asymptote A2 were set to 4.2∙10^−5 (GSC of IgG, data taken from Norden et al.) and 1 (equaling complete sieving), respectively. Curve fitting gave the center parameter LOGx0 = 19.36833 and the Hill slope p = −0.12108. GSCcalc values were calculated via implementation of fitting parameters and the experimentally determined MWapp,norm. in Equation (6).
# [3] = Blank SEC run of radioligand (PBS pH 7.4 without HSA); assay type: physicochemical; details: PBS pH 7.4 without HSA as mobile phase; corresponds to 0% HSA binding
# Protocol: To validate this hypothesis, blank runs (PBS pH 7.4 as mobile phase) of the radioligands on the SEC column were performed. The resulting retention times were termed tR,blank and represent the ligand-specific retention time that would correspond to 0% HSA binding in the AMSEC experiment. […] We concluded that unspecific electrostatic interactions between the highly negatively charged radioligand and the agarose/dextran-based matrix of the superdex column are present and lead to an elution prior to the expected cut-off volume. Consequently, apart from the radioligand’s binding to HSA in the AMSEC run, the unspecific interactions with the column matrix contribute to the determined MWapp,raw, thus hampering its informative value. […]
# MWapp,raw values determined as described in Section 3.3.1. were normalized in order to account for ligand-specific influences on experimentally determined retention times and to establish quantitative comparability of the obtained MWapp,norm. values. […] The determined retention time tR,blank, together with the retention time tR,AMSEC from the AMSEC run, tR,HSA, and tR,acetone determined in Section 3.3.1, were used to calculate a normalized retention time tR,norm. for every radioligand (for formulae and details on the calculation, see Section 2. Results and Discussion). […]
# T1 sequence (P02768 25-609): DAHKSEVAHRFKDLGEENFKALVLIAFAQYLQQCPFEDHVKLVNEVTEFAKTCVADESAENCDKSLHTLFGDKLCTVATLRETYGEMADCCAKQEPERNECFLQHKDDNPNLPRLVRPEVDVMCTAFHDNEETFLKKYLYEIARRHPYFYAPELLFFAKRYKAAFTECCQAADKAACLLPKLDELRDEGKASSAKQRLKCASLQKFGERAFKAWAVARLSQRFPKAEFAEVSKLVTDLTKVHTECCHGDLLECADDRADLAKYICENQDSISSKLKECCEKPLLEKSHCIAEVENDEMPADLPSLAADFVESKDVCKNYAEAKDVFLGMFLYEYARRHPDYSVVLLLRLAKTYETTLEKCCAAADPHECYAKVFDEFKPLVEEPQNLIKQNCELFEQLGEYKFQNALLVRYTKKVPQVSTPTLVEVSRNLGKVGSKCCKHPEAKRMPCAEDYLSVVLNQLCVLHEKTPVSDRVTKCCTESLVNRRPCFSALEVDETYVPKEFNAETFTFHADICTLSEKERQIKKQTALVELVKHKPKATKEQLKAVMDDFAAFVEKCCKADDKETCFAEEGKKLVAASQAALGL
Structure (SMILES),"tR,AMSEC (retention time in AMSEC run) [1] [min]",Retention factor k [1],"MWapp,raw (raw apparent molecular weight) [1] [kDa]","MWapp,norm. (normalized apparent molecular weight) [1] [kDa]","tR,norm. (normalized retention time) [1] [min]","MWapp,norm. higher than that of the stereoisomer ([1]; rhPSMA-7.2 vs rhPSMA-7.1, rhPSMA-10.1 vs rhPSMA-10.2) [%]",GSCcalc (calculated glomerular sieving coefficient) [2],"MWapp,raw in percentage of the MWapp,raw of rhPSMA-7.3 [1]","tR,blank (retention time in blank run) [3] [min]","Relative reduction in MWapp,norm. compared to MWapp,raw ([1]; effect of normalization)"
CC(C)(C)[Si](F)(c1ccc(C(=O)NC[C@H](NC(=O)CC[C@H](C(=O)O)N2CCN(CC(=O)[O-])CCN(CC(=O)[O-])CCN(CC(=O)[O-])CC2)C(=O)N[C@H](CCCCNC(=O)CCC(=O)NCCC[C@@H](NC(=O)CC[C@H](NC(=O)N[C@@H](CCC(=O)O)C(=O)O)C(=O)O)C(=O)O)C(=O)O)cc1)C(C)(C)C.[177Lu+3] [rhPSMA-7.2],14.564,0.680,32.0,21.7,15.962,27,0.344,–,–,–
CC(C)(C)[Si](F)(c1ccc(C(=O)NC[C@H](NC(=O)CC[C@@H](C(=O)O)N2CCN(CC(=O)[O-])CCN(CC(=O)[O-])CCN(CC(=O)[O-])CC2)C(=O)N[C@H](CCCCNC(=O)CCC(=O)NCCC[C@@H](NC(=O)CC[C@H](NC(=O)N[C@@H](CCC(=O)O)C(=O)O)C(=O)O)C(=O)O)C(=O)O)cc1)C(C)(C)C.[177Lu+3] [rhPSMA-7.4],14.143,0.729,36.0,26.0,15.316,–,0.138,~120%,–,–
CC(C)(C)[Si](F)(c1ccc(C(=O)NC[C@H](NC(=O)CN2CCN(CC(=O)[O-])CCN(CC(=O)[O-])CCN(CC(=O)[O-])CC2)C(=O)N[C@H](CCCCNC(=O)CCC(=O)NCCC[C@@H](NC(=O)CC[C@H](NC(=O)N[C@@H](CCC(=O)O)C(=O)O)C(=O)O)C(=O)O)C(=O)O)cc1)C(C)(C)C.[177Lu+3] [rhPSMA-10.2],15.908,0.543,22.0,13.2,17.736,–,0.846,–,–,–
"O=C(O)CC[C@H](NC(=O)N[C@@H](CCCCNC(=O)CCCCCCC(=O)NCCCC[C@@H](NC(=O)[C@@H](Cc1ccccc1)NC(=O)[C@@H](Cc1ccc(O)c(I)c1)NC(=O)CCC(C(=O)O)N1CCN(CC(=O)O)CCN(CC(=O)O)CCN(CC(=O)O)CC1)C(=O)O)C(=O)O)C(=O)O (stereo partly shown) (177Lu complex, metal not drawn) [PSMA-I&T, reference compound]",20.983,0.0013 and 0.001,5.4,1.9,24.792,–,–,approximately 18%,20.995,around 60%
CC(C)(C)[Si](F)(c1ccc(C(=O)NC[C@@H](NC(=O)CC[C@H](C(=O)O)N2CCN(CC(=O)[O-])CCN(CC(=O)[O-])CCN(CC(=O)[O-])CC2)C(=O)N[C@H](CCCCNC(=O)CCC(=O)NCCC[C@@H](NC(=O)CC[C@H](NC(=O)N[C@@H](CCC(=O)O)C(=O)O)C(=O)O)C(=O)O)C(=O)O)cc1)C(C)(C)C.[177Lu+3] [rhPSMA-7.1],15.240,0.613,26.5,17.1,16.824,–,0.655,–,–,–

# Reference: paper PMC9500755, “Albumin-Mediated Size Exclusion Chromatography: The Apparent Molecular Weight of PSMA Radioligands as Novel Parameter to Estimate Their Blood Clearance Kinetics” (Pharmaceuticals, 2022)
